Source: ChEMBL document CHEMBL3507680, “University of Dundee, Gates Library screen for HepG2 cell viability”

Test: Human HepG2 cell viability assay in 384 well format
Format: toxicity, cell-based
Parameters: dose 125 nL, time 70.5 hour; cytotoxicity at 70.5 h: concentration not given beside the values
Conditions: HepG2 cells, read-out: Inhibition

Compound	cytotoxicity at 70.5 h
NC(=O)C1=NC2=NS(=O)(=O)c3ccccc3N2N1Cc1ccc(Br)cc1	-7.39%
Cc1ccc(CNC(=O)c2c[nH]nc2NC(=O)COCC2CC2)cc1	-3.76%
Cc1ccc(CNC(=O)c2c[nH]nc2NC(=O)C2CCC2)cc1	-7.26%
CCOc1ccc(NC2CCN(C)C2=O)cn1 (stereo not given)	-3.61%
CCC(C)Oc1cc(C(=O)Nc2nc(C)ns2)ccn1 (stereo not given)	-0.392%
CCCc1nnc(NCc2ccc(OC)c(C#N)c2)o1	20.2%
CC(C)OCc1cccc(NC(=O)N(C)Cc2ncnn2C)c1	-9.1%
CCSCc1cccc(NC(=O)N(C)Cc2ncnn2C)c1	-3.07%
CC(C)Nc1cccc(CNC(=O)N2CCC[C@@H]2CO)c1	-2.37%
CCN(C(=O)NCc1ncc(C)c(OC)c1C)C(C)c1cccnc1 (stereo not given)	-9.02%
OC(COCc1cccs1)CSc1nnc2ccccn12 (stereo not given)	22.9%
CC(=O)N(CCc1ccccc1)CC(=O)NC1(C#N)CC1	-0.397%
Cc1cc(S(=O)(=O)Nc2onc(C)c2C)c(C)s1	-3.24%
CCN1CCN(C(=O)NCc2cccc(-c3cnn(C)c3)c2)CC1	-2.59%
Cc1nc(C2CCCN2C(=O)c2ccc(=O)n(C)n2)no1 (stereo not given)	-5.27%
c1cncc(CN2CCC(NCCc3ccc4c(c3)OCO4)CC2)c1	0.189%
Cc1ccsc1CN(C)C(=O)C1CCCN(C(N)=O)C1 (stereo not given)	-8.56%
Cc1cccc(C(C)(C)CNc2cn[nH]c(=O)c2Cl)c1	18.4%
CC(C)(CNc1cn[nH]c(=O)c1Cl)c1ccc2c(c1)OCO2	-13.4%
CC(C)c1ccc(O)c(C(=O)NC2CCN(c3ncccn3)CC2)c1	-19.5%
CN(C(=O)CN1CCC(c2cc3ccccc3[nH]2)CC1)C1CC1	-8.97%
CN(C)C(=O)CN1CCN(C(=O)C2CSc3ccccc3O2)CC1 (stereo not given)	-16.2%
CCOC(C(=O)N1CCn2c(C)nnc2C1)c1ccccc1 (stereo not given)	-11.7%

Compound	cytotoxicity at 70.5 h
Cc1nnc2n1CCN(C(=O)C(OC1CCCC1)c1ccccc1)C2 (stereo not given)	-1.74%
CC(C)(O)CN1CCN(C(=O)C2CSc3ccccc3O2)CC1 (stereo not given)	-14.7%
Cc1noc(C2CCN(C(C)c3nc(C(C)(C)C)no3)CC2)n1 (stereo not given)	-14.9%
CC(C)NC(=O)C1CCN(Cn2ccc(-c3ccc(F)cc3)n2)CC1	4%
N#CCCN(c1ccc(F)cc1)S(=O)(=O)CC1CCCCO1 (stereo not given)	-1.6%
Cc1cccc(-c2c[nH]c(C3CCCN3C(=O)Cn3cc(C)cn3)n2)c1 (stereo not given)	6.62%
N#CCCN(c1ccccc1)S(=O)(=O)CC1CCCCO1 (stereo not given)	-9.85%
CCC(NC(=O)c1ccc2[nH]ccc2c1)C(=O)N1CCOCC1 (stereo not given)	6.49%
O=C(NC1CCN(c2ncccn2)CC1)c1cc2c(cc1O)CCCC2	6.37%
CC1CN(C(=O)c2cc[nH]c(=O)c2)c2ccccc21 (stereo not given)	-12.3%
CCCNC(=O)CCc1ccnc2ccccc12	-14%
CCOC(C)c1nc(Cn2cc(C)cn2)cs1 (stereo not given)	9.54%
CCOC(C)c1nc(Cn2cccn2)cs1 (stereo not given)	-8.39%
CCOC(C)c1nc(Cn2cc(-n3cccc3)cn2)cs1 (stereo not given)	-10.1%
CC(CN(C)C(=O)c1cn(C)nc1-c1ccc(F)cc1F)C(=O)O (stereo not given)	-1.61%
CC(=O)N1CCC(NS(=O)(=O)c2cccnc2)CC1	8%
Cc1ccc(OCC(O)CN(C)CC(=O)Nc2cc(C)on2)c(C)c1 (stereo not given)	10.1%
COCC(C)N(C)C(=O)NC1CCN(c2ncccn2)CC1 (stereo not given)	7.61%
Cc1ccc2cc(C(=O)NCCN3CCS(=O)(=O)CC3)c(C)nc2c1	-15.9%
CN(C)C(=O)CCCS(=O)(=O)Cc1cc(Cl)c2c(c1)OCCO2	-4.96%
CCOCCNC(=O)C(CCSC)NC(=O)c1ccc2ccccc2n1 (stereo not given)	5.06%
CSCCC(NC(=O)c1ccc2ccccc2n1)C(=O)NC1CC1 (stereo not given)	-8.01%
COc1ccnc(NC2CCN(CC(=O)N3CCCC3)CC2)n1	-4.69%

Compound	cytotoxicity at 70.5 h
Cc1ccc(OCC(O)CN(C)CC(=O)NC(C)C)c(C)c1 (stereo not given)	3.84%
O=C(CN1CCC(Nc2ncccn2)CC1)Nc1ccccc1	-5.9%
Cn1cc(C(=O)OCC(N)=O)c(-c2ccc(F)cc2F)n1	-7.24%
O=C1CCN(C(=O)CCc2cc(Br)cs2)CCN1	-10.5%
CN(C)C1CCN(C(=O)CCc2cc(Br)cs2)CC1	-0.796%
Cc1nccn1-c1ccc(CNC(=O)c2ccc[nH]2)cn1	-6.51%
CN(C)c1nccc(N(C)C2CCOCC2)n1	-2.99%
CS(=O)(=O)CCCNC1(c2cccc(Cl)c2)CCCC1	-5.23%
Cc1nnc(SCCC(=O)N(C)Cc2ccc(F)cc2F)[nH]1	4.62%
Cc1nnc(SCCC(=O)N(C)Cc2ccc(F)cc2Cl)[nH]1	-4.47%
CCCc1nc(C(C)(C)NC(=O)c2ccnn2C)no1	-2.57%
CCN(Cc1csc(CS(C)(=O)=O)n1)c1cccc(CO)c1	-6.41%
CS(=O)(=O)CCCNC1(c2cccc(F)c2)CC1	-7.6%
CC(c1ccccc1)N(C)C(=O)CNCCn1cccn1 (stereo not given)	-10.3%
CN(C)c1cc(CNC(=O)NCC2(C)CCCS2)ccn1 (stereo not given)	10.1%
O=C(Nc1ccnn1Cc1ccc(Cl)cc1)C1CCS(=O)(=O)C1 (stereo not given)	-8.12%
CS(=O)(=O)c1ccc(NCCC2CCCO2)c(S(C)(=O)=O)c1 (stereo not given)	-16.8%
CSCC(=O)NS(=O)(=O)c1ccc(C#N)c(C(F)(F)F)c1	-8.4%
CS(=O)(=O)c1cc(S(N)(=O)=O)ccc1NCC1CCCO1 (stereo not given)	-3.22%
COc1ccccc1C(C)NC(=O)NCCC(=O)NC1CCCCC1 (stereo not given)	-16.1%
N#Cc1c(F)cccc1N1CCCC(C(=O)Nc2nccs2)C1 (stereo not given)	-19.5%
CC(=O)N1CCC(NC(=O)c2ccc3c(c2O)OC(C)(C)C3)CC1	-12.2%
CCCNC(=O)NC(=O)CNc1c(F)cccc1N1CCCC1	-17.8%

Compound	cytotoxicity at 70.5 h
CC(C)COC1CCN(S(=O)(=O)Cc2cccc(F)c2)CC1	-14.2%
COc1ccnc(N2CCN(Cc3nc(-c4ccoc4)no3)CC2)c1	-0.129%
N#CC1(NC(=O)c2ccc(-c3nc(C4CC4)n[nH]3)cc2)CCSC1 (stereo not given)	-18.6%
O=C(Nc1cccnn1)NC(CCCO)c1ccccc1 (stereo not given)	-14.5%
N#CC1(NC(=O)c2ccc(-c3nc(C4CC4)n[nH]3)cc2)CCC1	-16.7%
N#Cc1cc(F)ccc1Cn1cnc(C2CCC2)cc1=O	1.8%
COCC1CCCN(C(=O)c2ccc(NC(=O)CC(C)C)c(C)c2)C1 (stereo not given)	-17.4%
Cc1ccc(CN(C)C(=O)c2cnsn2)cc1	4.93%
COCCN1CCN(Cc2nc(-c3ccoc3)no2)CC1	-4.32%
Cc1cc(NC(=O)C(C)N2CCN(c3ccc(C#N)cc3F)CC2)no1 (stereo not given)	-11.7%
CC(C)(C)c1nc(NS(=O)(=O)c2ccc(F)cc2)no1	-17.2%
CCOCC(=O)NCCc1ccc(I)s1	18.6%
Cc1cc(C(=O)N2CCCC2)ccc1NCCOCC(F)(F)F	9.16%
CC(CO)(NC(=O)Nc1nnc(C(F)F)s1)C1CC1 (stereo not given)	4%
Cc1cccc2c(CCNS(=O)(=O)C3CCOC3)c[nH]c12 (stereo not given)	12.8%
Cc1c(C(=O)NCCC(=O)N2CCOCC2)oc2c(C)cccc12	-12.9%
COC(=O)CN(Cc1ccccc1C)C(=O)CCNC(=O)C(C)(C)C	-6.72%
CC(C)(C)C(O)CN1CCN(CC(=O)NCC(F)(F)F)CC1 (stereo not given)	13.1%
CC(Nc1ccc(CC(=O)N(C)C)cc1)C(=O)N(C)CCC#N (stereo not given)	-12.3%
CC(CO)(NC(=O)Nc1nncs1)C1CCCCC1 (stereo not given)	2.4%
Cc1nncn1CCNC(=O)C(C)(C)c1cccc(C(F)(F)F)c1	-9.3%
Cc1nncn1CCNC(=O)C(C)(C)c1cccc(F)c1	-7.47%
O=S(=O)(NCCc1c[nH]c2cc(F)ccc12)C1CCOC1 (stereo not given)	0.583%

Compound	cytotoxicity at 70.5 h
CN1CCN(Cc2cccc(NCc3ncc[nH]3)c2)CC1	8%
Cc1cc(-c2nc(C3(NC(=O)OC(C)(C)C)CCC3)no2)on1	-5.47%
Cc1nncn1CCNC(=O)C(C)(C)c1cccc(Cl)c1	-8.68%
CCc1nc2n(n1)CCCC2NC(=O)Nc1ccc(SC)c(F)c1 (stereo not given)	-6.66%
CCN(C)CC1CCN(C(=O)Nc2ccc(-c3cc[nH]n3)cc2)C1 (stereo not given)	11.5%
Fc1cccc(CCN(c2ccc3nnnn3n2)C2CC2)c1	-17.4%
CC(C)COCC(NC(=O)Cc1ccn[nH]1)c1ccco1 (stereo not given)	-6.61%
COc1cc2ccn(CCS(C)(=O)=O)c(=O)c2cc1F	-2.4%
Cc1ncsc1CN1C[C@@H]2CN(S(C)(=O)=O)CCO[C@@H]2C1	-7.53%
O=C(C1CCOC1)N1CCC2(CC1)Cc1ccccc1CNC2=O (stereo not given)	-9.03%
O=C1NCCO[C@H]2CN(C(=O)Cc3cccs3)CC[C@@H]12	-7.13%
Cn1cc(-c2ncc3c(c2C(=O)O)CCN(CC2CCOC2)C3)cn1 (stereo not given)	-3.12%
Cc1ccc(NC(=O)N2CCC3(CCC(C(=O)N(C)C)O3)CC2)cc1 (stereo not given)	-4.12%
Cc1nc(-c2nc(C(=O)N(C)C)c3ccccn23)cn1C(C)C	-8.88%
Cc1nnc([C@@]23CCO[C@@H]2CCN(Cc2nccs2)C3)o1	-9.1%
Cc1ccc(CN2CCCC3(CCCN3S(C)(=O)=O)C2)s1 (stereo not given)	-8%
Cc1cnc(N2CCc3cc(C(=O)O)c(N(C)C)nc3CC2)nc1	-7.94%
Cc1noc([C@@]23CCO[C@@H]2CCN(Cc2scnc2C)C3)n1	-13.1%
Cc1ccsc1C(=O)N1CCC2(CC1)C(=O)N(C)CCN2CC1CC1	-12.8%
CCOCCN1C[C@H](C(=O)Nc2cccnc2)[C@@H]2CCO[C@@H]2C1	-4.15%
Cc1cccc(CN2CC[C@@H]3[C@@H]2CCN3Cc2cccs2)n1	-5.52%
Cc1ccc(C(=O)N2C[C@H](N3CCOCC3)[C@@H]3OCCC[C@@H]32)cn1	-9.11%
c1ccc(CN2Cc3[nH]nc(COc4cccnc4)c3C2)nc1	-7.63%
